In article PMC12304293, “Combatting virulent gut bacteria by inhibiting the biosynthesis of a two-component lanthipeptide toxin” (Nature Communications, 2025):
Values joined by “and” are separate entries in the source; they are usually repeats but may differ in a detail not shown here. Identical values can stand only once. Non-standard residues stand in square brackets, D forms with d. Residues, ends and D or L forms follow the SMILES beside them. *: point of attachment. boroGlu = O=C(O)CC[C@H](N*)B(O)O; Gly(cPr) = N[C@H](C(=O)O)C1CC1

Experiments:
[1] = assay type: in vitro ADME, Enterococcus faecalis; conditions: 100 µM, 37 °C, 20 h
Experimental: To investigate the stability of 9 in the presence of E. faecalis, cell extracts treated with 9 were tested for inhibitory activity. […] Cultures that were treated with 100 µM of 9 at 37 °C for 20 h gave extracts that inhibited the activity of CylA in vitro. The inhibitory activity of these extracts was about 3-fold less than a sample of fresh 9.
Similiarly, 9 was diluted to 100 µM in BHI that was inoculated with E. faecalis ATCC 29212 before incubating at 37 °C for 20 h. The overnight culture was flash frozen and lyophilized. The lyophilized samples were extracted with a volume of 90% methanol/10% water that was equal to the volume of the sample prior to lyophilization. The extract was assumed to have a concentration of 100 µM. […]
Human Serum + 9 Human Serum
Log(Concentration (µM)) Log(Concentration(µM))
Supplementary Figure 19. The stability of inhibitor 9 in the pres ence of human serum or C+ E. faecalis. A ) C y l A i nhibition activity of an extract of human s erum treated with 9 (100 μM) for 3 h at 37 ̊C. The resulting solution was used to determine the remaining activity of the inhibitor in a […]
CylA activity assay. […] This experiment was perform ed on three different samples of inhibitor (n = 3). […]
(also on this page, place not known: determined. inhibition CylA These IC 50 presence serum This performed A) Non-linear fitting v i/vo IC 50. […]

[2] = test system: C+ E. faecalis (FA2-2 (pAM714), ATCC 29212); test: Solution-phase hemolysis assay with C+ E. faecalis and rabbit erythrocytes; assay type: cell-based, Enterococcus faecalis
Source text: To test this hypothesis, a solution-phase hemolysis assay was developed, and this assay was used to monitor the effect of 9 on the hemolytic activity of several strains of E. faecalis (Fig. 8A). The cytolysin BGC is part of conjugative plasmid pAD1[64]. E. faecalis FA2-2 (-pAD1) lacks pAD1 and E. faecalis FA2-2 (pAM9055) is defective in cylA[27],[64]. Consistent with previous findings, both strains were not hemolytic (Fig. 8A).
A Treatment of an inoculum (OD600 = 0.35) of washed E. faecalis cells with 100 μM inhibitor 9 ( + 9), in the presence of washed rabbit erythrocytes. The hemolytic activity decreased relative to untreated controls (− 9). In total, four biological replicates (n = 4) for each condition were performed. Error bars represent the standard deviation and are centered at the mean. B Assessment of the ability of inhibitor 9 to block the hemolytic activity of live E. faecalis over a range of inhibitor concentrations under conditions described for (A). […] Errors in the EC50 are the errors calculated during the non-linear concatenate fit. C LCMS analysis of the concentration of CylLS” extracted from overnight cultures of C+ E. faecalis ATCC 29212 treated with 9 or vehicle. CylLS” extract concentrations were determined by comparison to an internal standard of ^15N,^13C-labeled CylLS”. Four biological replicates were performed (n = 4). Errors bars are centered at the mean and represent the standard of deviation. […] Four biological replicates were performed (n = 4). Error bars are centered at the mean and represent the standard of deviation. Statistical significance was calculated using a two sample and two sided t test for (A) and (C) and a one sample one sided t test for (D). **P < 0.01, ***P < 0.001. Source data are provided as a Source Data file.
Rabbit erythrocytes (Hemostat) were washed with cold, sterile PBS and diluted in BHI to a concentration of 1% v/v. A 3 mL overnight culture of E. faecalis was centrifuged (4000 × g, 10 min) and the pellet was resuspended in 7 mL of BHI and the suspension was centrifuged (4000 × g, 10 min). The pellet was resuspended in BHI to achieve an OD600 of 1.4 and 50 µL of this suspension was added to a well containing 50 µL of inhibitor (400 µM). The inhibitor and the E. faecalis were incubated at room temperature for 10 min before adding 100 µL of 1% v/v rabbit erythrocytes in BHI. The inhibitor-free control well contained the same concentration of bacteria and rabbit erythrocytes. The sterile negative control and sterile positive control contained 100 µL of BHI and 100 µL of 1% v/v rabbit erythrocytes. […] The plate was then placed on ice and centrifuged at 1000 × g for 10 min to pellet all the remaining cellular material. The supernatant was diluted 10-fold in PBS and the absorbance at 415 nm was measured. For each condition, four wells were prepared and analyzed.

## CC(=O)NCC(=O)N[C@@H](CC(=O)O)C(=O)N[C@H](C(=O)N[C@@H](CCC(N)=O)C(=O)N[C@@H](C)C(=O)N[C@@H](CCC(=O)O)B(O)O)C1CC1 [Compound 9] (Ac-GD[Gly(cPr)]QA-boroGlu)
[1]
  inhibitory activity of culture extracts less than a sample of fresh 9: about 3 fold
  stability in cultures of E. faecalis: relatively good stability
[2]; ATCC29212 +9, 100 μM
  hemolysis, absorbance at 415 nm (Figure 8A), replicates: 0.1606 and 0.1785 and 0.1723 and 0.2311
[2]; C+ E. faecalis ATCC 29212, 100 μM, rabbit erythrocytes
  hemolysis relative to untreated cells: significantly reduced
[2]; E. faecalis FA2-2 (pAM714), 100 μM, rabbit erythrocytes
  hemolytic activity relative to untreated cells: significantly reduced
[2]; log(concentration of Inhibitor 9 (uM)) 1
  OD 415 nm (Figure 8B), trials 1 and 2: 0.3132 and 0.3077
[2]; log(concentration of Inhibitor 9 (uM)) 1.39794
  OD 415 nm (Figure 8B), trials 1 and 2: 0.3207 and 0.274
[2]; log(concentration of Inhibitor 9 (uM)) 1.69897
  OD 415 nm (Figure 8B), trials 1 and 2: 0.2734 and 0.2373
[2]; log(concentration of Inhibitor 9 (uM)) 1.87506
  OD 415 nm (Figure 8B), trials 1 and 2: 0.2493 and 0.2138
[2]; log(concentration of Inhibitor 9 (uM)) 2
  OD 415 nm (Figure 8B), trials 1 and 2: 0.2161 and 0.1917
[2]; log(concentration of Inhibitor 9 (uM)) 2.09691
  OD 415 nm (Figure 8B), trials 1 and 2: 0.2085 and 0.1864
[2]; log(concentration of Inhibitor 9 (uM)) 2.17609
  OD 415 nm (Figure 8B), trials 1 and 2: 0.1972 and 0.1808
[2]; log(concentration of Inhibitor 9 (uM)) 2.30103
  OD 415 nm (Figure 8B), trials 1 and 2: 0.2237 and 0.2008
[2]; pAM714 +9, 100 μM
  hemolysis, absorbance at 415 nm (Figure 8A), replicates: 0.2309 and 0.2273 and 0.2512 and 0.1929
